According to PMC2802534 (Journal of medicinal chemistry, 2009):

What was measured:
HIV-1IIIB = assay: Inhibition of HIV-1 IIIB replication in MT-2 cells, p24 production by ELISA; assay type: cell-based; details: for fold more potent than 12 and 13: replication of HIV-1 IIIB and 94UG103, relative to 12 and 13
HIV-1 = details: previously identified; cited from earlier work

SMILES | fold more potent than 12 and 13 (HIV-1IIIB) | inhibit HIV-1 infection (HIV-1) | also measured
O=C(O)c1cccc(-c2ccc(/C=C3\SC(=S)N(CCc4ccccc4)C3=O)o2)c1 [11a, 3-{5-[4-Oxo-3-phenethyl-2-thioxothiazolidin-5-ylidenemethyl]furan-2-yl}-benzoic acid] | more than 20 fold | – | –
Cc1ccc(-c2ccc(/C=C3\SC(=S)N(CCc4ccccc4)C3=O)o2)cc1C(=O)O [11b, 2-Methyl-5-{5-[4-oxo-3-phenethyl-2-thioxothiazolidin-5-ylidenemethyl]furan-2-yl}-benzoic acid] | more than 20 fold | – | –
O=C(O)c1cc(-c2ccc(/C=C3\SC(=S)N(CCc4ccccc4)C3=O)o2)ccc1Cl [11d, 2-Chloro-5-{5-[4-oxo-3-phenethyl-2-thioxothiazolidin-5-ylidenemethyl]furan-2-yl}-benzoic acid] | more than 20 fold | – | fold greater potency than 13 (HIV-1IIIB; relative to 13): ~ 25 fold
O=C(O)c1cc(-c2ccc(/C=C3\SC(=S)N(CCc4ccccc4)C3=O)o2)ccc1Br [11i, 2-Bromo-5-{5-[4-oxo-3-phenethyl-2-thioxothiazolidin-5-ylidenemethyl]furan-2-yl}-benzoic acid] | – | – | fold reduction of anti-HIV-1 activity (HIV-1IIIB; relative to unsubstituted 11a): ~ 7 fold
Cc1ccc(C)n1-c1ccc(C(=O)O)c(O)c1 [compound 12, N-(4-carboxy-3-hydroxy)phenyl-2,5-dimethylpyrrole] | – | low μM level | –
O=C(O)c1cc(-n2cccc2)ccc1Cl [compound 13, N-(3-carboxy-4-chloro) phenylpyrrole] | – | low μM level | –
